Experimental data published in patent US20250372228A1, “METHOD AND SYSTEM FOR D[…] PHARMACOKINETIC MODEL OF PROPOFOL AND DERIVATIVE THEREOF” (Xizang Haisco Pharmaceutical Co., Ltd., priority 2020, published 2025).
Where two headings read alike, the source gives them in different places.

What was measured:
[1] = Population pharmacokinetic (PopPK) three-compartment model of the propofol derivative from clinical trial plasma concentrations; type: in vivo, human; conditions: for Intercompartmental clearance between the central compartment and the peripheral compartment 1, Q2: exp(θ3); for Volume of distribution in the peripheral compartment 1, V2: exp(θ4); for Clearance between the central compartment and the peripheral compartment 2, Q3: exp(θ5); for Volume of distribution in the peripheral compartment 2, V3: exp(θ6); for relative median change of CL by total protein: total protein range not given; for Residual of venous blood collection (%): σ1; for Residual of arterial blood collection (%): σ2; for Interindividual variation of clearance, CL %: ωCL; for Interindividual variation of intercompartmental clearance between the central compartment and the peripheral compartment 1, Q2%: ωQ2; for Interindividual variation of intercompartmental clearance between the central compartment and the peripheral compartment 2, Q3%: ωQ3; for Interindividual variation of volume of distribution in the central compartment, V1%: ωV1; for Interindividual variation of volume of distribution in the peripheral compartment 2, V3%: ωV3
Text: The original data set comprises 2609 measurable plasma drug concentration data from 219 subjects (wherein 81 people receive both arterial and venous blood collection, and subjects receiving another blood collecting method are regarded as new individuals, that is, 300 individuals are included in the population analysis).
By using a stepwise backward elimination method, no influence factors are eliminated (Δ−2LL>10.83).

[2] = test system: γ-aminobutyric acid type A (GABAA) receptor; assay: Potency compared with propofol (background statement)
[3] = Free drug concentration in the aqueous phase by ultrafiltration method; type: physicochemical; conditions: same conditions and concentrations, compared with propofol (Jingan®)
Text: Propofol derivative injectable emulsion (hereinafter referred to as propofol derivative, with a chemical name of 2-[(1R)-1-cyclopropylethyl]-6-isopropyl-phenol), which is developed by Sichuan Haisco Pharmaceutical Co., Ltd. as a novel intravenous anesthetic with independent intellectual property rights, is intended to be used for sedation/anesthesia in various diagnostic examinations or treatments, induction and maintenance of general anesthesia, and sedation (ICU sedation) of intensive care subjects under mechanical ventilation. The propofol derivative, as the active ingredient, is a chemical entity similar to propofol, and is a single […] with two chiral centers of R-configuration. […] The main action mechanism of the propofol derivative is to allow for the inflow of chloride ions by enhancing an ion channel mediated by a γ-aminobutyric acid type A (GABAA) receptor, thereby achieving the inhibition of the nervous centralis. The channel is also a main target where propofol exerts its effects. The propofol derivative has the pharmacodynamic characteristics of fast onset of action and stable and rapid recovery.

clinical = conditions: human, plasma, intravenous; for clearance: CL, exp(θ1); for Vd: Volume of distribution in the central compartment, V1, exp(θ2)
Experimental: (§1) A pharmacokinetic data set included in the analysis are determined by evaluating the clinical trial data included: • plasma drug concentration data: acquired by means of implementation of the sampling scheme (see FIG. 8); • baseline demographic characteristic data: race, age, height, weight and gender; • blood biochemical index data: blood total protein content, creatinine clearance, glutamic-oxalacetic transaminase and glutamic-pyruvic transaminase; and • blood collection sites.
(§2) Establishing the preliminary foundation model on the basis of the data processed in step 3 comprising: • (1) describing interindividual variation of the PK parameters by using the following equation:
(§3) Establishing the final foundation model on the basis of the preliminary foundation model in step 4 comprising: • (1) determining covariates included in the evaluation on the basis of clinical knowledge and a drug action mechanism: • baseline demographic characteristic covariates: baseline values for age, gender, weight and race; • blood biochemical index covariates: creatinine clearance, total protein, glutamic-oxalacetic transaminase, glutamic-pyruvic transaminase, alkaline phosphatase and total bilirubin; and • blood collection sites. • (2) establishing a final population pharmacokinetic foundation model on the basis of the covariates included in the evaluation.
(§4) Establishing the population pharmacokinetic model by adding the screened covariates on the basis of the final foundation model in step 5 comprising: • (1) Pre-screening of covariates: • analyzing the correlation between the continuous covariates and the PK parameters by using the following equation:

[4] = for Volume of distribution in the peripheral compartment 2, V3: exp(6); for Volume of distribution in the peripheral compartment 2, V3 / Clearance between the central compartment and the peripheral compartment 2, Q3: parameter fixed (FIX); for Intercompartmental clearance between the central compartment and the peripheral compartment 1, Q2: exp(θ3); for Volume of distribution in the peripheral compartment 1, V2: exp(θ4); for Clearance between the central compartment and the peripheral compartment 2, Q3: exp(θ5); for Residual (%): σ1; for Clearance, CL %: ωCL (interindividual variation); for Volume of distribution in the central compartment, V1%: ωV1 (interindividual variation)
Experimental: as §1, §2, §3, §4

[5] = median of Bootstrap (2.5th to 97.5th percentiles)
[6] = typical value of final population model (95% CI)
[7] = typical value of final population model

CC(C)c1cccc([C@H](C)C2CC2)c1O [propofol derivative, 2-[(1R)-1-cyclopropylethyl]-6-isopropyl-phenol]
influence of age on AUC0-24 ([1]; age 19.8 to 53 years old, propofol derivative-302 trial): no influence | influence of age on Cmax ([1]; age 19.8 to 53 years old, propofol derivative-302 trial, expected to be clinically insignificant): has an influence | Clearance, CL ([1]; exp(θ1), median of Bootstrap (2.5th to 97.5th percentiles)): 66.4 (63.7 to 69.4) L/hr | Volume of distribution in the central compartment, V1 ([1]; exp(θ2), median of Bootstrap (2.5th to 97.5th percentiles)): 2.48 (2.27 to 2.74) L | Intercompartmental clearance between the central compartment and the peripheral compartment 1, Q2 [1, 5]: 57.9 (51.5 to 65.6) L/hr | Intercompartmental clearance between the central compartment and the peripheral compartment 1, Q2 [1, 6]: 58 (50.8 to 65.1) L/hr | Volume of distribution in the peripheral compartment 1, V2 [1, 5]: 5.74 (5.07 to 6.7) L | Volume of distribution in the peripheral compartment 1, V2 [1, 6]: 5.77 (4.96 to 6.58) L | Clearance between the central compartment and the peripheral compartment 2, Q3 [1, 5]: 59.1 (54.6 to 63.6) L/hr | Clearance between the central compartment and the peripheral compartment 2, Q3 [1, 6]: 59.0 (54.5 to 63.5) L/hr | Volume of distribution in the peripheral compartment 2, V3 [1, 5]: 78.4 (73 to 83.9) L | Volume of distribution in the peripheral compartment 2, V3 [1, 6]: 78.3 (72.8 to 83.8) L | relative median change of CL by total protein ([1]; first value of the pair): 6.8% | clearance ([1]; human, plasma, intravenous, exp(θ1), typical value of final population model (95% CI), read-out: Clearance, CL (converted)): 1110 mL/min | Vd ([1]; human, plasma, intravenous, exp(θ2), typical value of final population model (95% CI), read-out: Volume of distribution in the central compartment, V1): 2.48 L | relative median change of CL by total protein ([1]; second value of the pair): −6.3% | relative median change of CL by weight ([1]; weight 45 kg (lower end of range 45 kg to 90 kg)): −11.6% | relative median change of CL by weight ([1]; weight 90 kg (upper end of range 45 kg to 90 kg)): 12.7% | Residual of venous blood collection (%) [1, 5]: 30.5 (26.3 to 34.6) % | Residual of venous blood collection (%) [1, 6]: 30.6 (26.6 to 34.5) % | Residual of arterial blood collection (%) [1, 5]: 16.9 (15.7 to 18.2) % | Residual of arterial blood collection (%) [1, 6]: 16.9 (15.8 to 18.1) % | Interindividual variation of clearance, CL % [1, 5]: 14.3 (11.9 to 17) % | Interindividual variation of clearance, CL % [1, 6]: 14.5 (12 to 16.9) % | Interindividual variation of intercompartmental clearance between the central compartment and the peripheral compartment 1, Q2% [1, 5]: 29.0 (23.1 to 35.5) % | Interindividual variation of intercompartmental clearance between the central compartment and the peripheral compartment 1, Q2% [1, 6]: 28.9 (23.1 to 34.7) % | Interindividual variation of intercompartmental clearance between the central compartment and the peripheral compartment 2, Q3% [1, 5]: 28.8 (22.8 to 36.3) % | Interindividual variation of intercompartmental clearance between the central compartment and the peripheral compartment 2, Q3% [1, 6]: 29.1 (23.1 to 35.1) % | Interindividual variation of volume of distribution in the central compartment, V1% [1, 5]: 40.4 (27.7 to 54.5) % | Interindividual variation of volume of distribution in the central compartment, V1% [1, 6]: 41.4 (28 to 54.9) % | Interindividual variation of volume of distribution in the peripheral compartment 2, V3% [1, 5]: 30.5 (25.3 to 35.7) % | Interindividual variation of volume of distribution in the peripheral compartment 2, V3% [1, 6]: 30.7 (25.6 to 35.8) % | potency relative to propofol [2]: 4-5 times | free drug concentration in the aqueous phase [3]: lower free drug concentration in the aqueous phase

CC(C)c1cccc(C(C)C)c1O [propofol]
clearance (clinical; [5]): 1530 mL/min | clearance (clinical; [6]): 1590 mL/min | Vd (clinical; [5]): 8.92 L | Vd (clinical; [6]): 9.46 L | influence of covariates on the pharmacokinetic parameters ([4]; covariate screening, forward and backward method): not found that covariates have a significant influence | Volume of distribution in the peripheral compartment 2, V3 ([4]; Bootstrap column): 262, FIX(—) L | Volume of distribution in the peripheral compartment 2, V3 [4, 7]: 262, FIX(—) L | Intercompartmental clearance between the central compartment and the peripheral compartment 1, Q2 [4, 5]: 132 (13.0 to 200) L/hr | Intercompartmental clearance between the central compartment and the peripheral compartment 1, Q2 [4, 6]: 142 (88.4 to 196) L/hr | Volume of distribution in the peripheral compartment 1, V2 [4, 5]: 35.6 (1.64 to 53.3) L | Volume of distribution in the peripheral compartment 1, V2 [4, 6]: 37.6 (25.2 to 50.0) L | Clearance between the central compartment and the peripheral compartment 2, Q3 ([4]; Bootstrap column): 48.6, FIX(—) L/hr | Clearance between the central compartment and the peripheral compartment 2, Q3 [4, 7]: 48.6, FIX(—) L/hr | Residual (%) [4, 5]: 17.1 (11 to 23.1) % | Residual (%) [4, 6]: 19.2 (12.7 to 25.7) % | Clearance, CL % [4, 5]: 22.5 (13.6 to 30.6) % | Clearance, CL % [4, 6]: 23.0 (14.8 to 31.1) % | Volume of distribution in the central compartment, V1% [4, 5]: 32.4 (6.02 to 49.5) % | Volume of distribution in the central compartment, V1% [4, 6]: 30.5 (8.11 to 52.9) %
